We go through 24 molecules from patent publication US12043632B2, “6-heteroaryloxy benzimidazoles and azabenzimidazoles as JAK2 inhibitors” (Ajax Therapeutics, Inc., priority 2020, dated 2024).

The structures appear in SMILES notation.

This test deals with T1, JAK2 (JH1domain-catalytic, Y1007F,Y1008F) kinase (Homo sapiens, UniProt O60674, Y1007F/Y1008F).
T1 construct: JAK2 (JH1domain-catalytic, Y1007F,Y1008F) kinase was expressed as N-terminal fusion; made in house; host or cells: transiently transfected HEK293 cells
T1 sequence (O60674 849-1124 Y1007F/Y1008F limits assumed): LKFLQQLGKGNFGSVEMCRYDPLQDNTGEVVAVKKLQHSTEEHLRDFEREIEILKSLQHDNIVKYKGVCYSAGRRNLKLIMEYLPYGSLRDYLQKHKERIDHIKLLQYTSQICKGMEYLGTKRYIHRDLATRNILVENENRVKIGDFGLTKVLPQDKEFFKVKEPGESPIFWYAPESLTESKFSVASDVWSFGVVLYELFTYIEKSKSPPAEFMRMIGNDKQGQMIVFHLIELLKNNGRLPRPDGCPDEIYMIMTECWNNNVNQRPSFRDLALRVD
Briefly: JAK2 JH1 Domain Binding Assay. The note with it: qPCR readout.
Consider `Cn1c(Nc2ccc(CN3CCCOCC3)c(C(F)(F)F)c2)nc2ncc(Oc3cnn4ccncc34)c(Cl)c21` [Example I-298, N-(4-((1,4-oxazepan-4-yl)methyl)-3-(trifluoromethyl)phenyl)-7-chloro-1-methyl-6-(pyrazolo[1,5-a]pyrazin-3-yloxy)-1H-imidazo[4,5-b]pyridin-2-amine], for which the Kd (usually a measure of binding affinity in units of concentration) is < 10 nM.

In the case of `COc1n[nH]c2ncc(Oc3cnc4nc(Nc5cc(C(F)(F)F)cn(C)c5=O)n(C)c4c3C#N)cc12` [Example I-299, 6-((3-methoxy-1H-pyrazolo[3,4-b]pyridin-5-yl)oxy)-1-methyl-2-((1-methyl-2-oxo-5-(trifluoromethyl)-1,2-dihydropyridin-3-yl)amino)-1H-imidazo[4,5-b]pyridine-7-carbonitrile], the Kd is < 10 nM.

Consider `Cn1cc(C(F)(F)F)cc(Nc2nc3ncc(Oc4cnc5[nH]cc(C#N)c5c4)c(C#N)c3n2C)c1=O` [Example I-300, 6-((3-cyano-1H-pyrrolo[2,3-b]pyridin-5-yl)oxy)-1-methyl-2-((1-methyl-2-oxo-5-(trifluoromethyl)-1,2-dihydropyridin-3-yl)amino)-1H-imidazo[4,5-b]pyridine-7-carbonitrile], for which the Kd fell in the range of 50 to 1000 nM.

On to `CCN1CCCN(Cc2ccc(Nc3nc4ncc(Oc5cnn6ccncc56)c(Cl)c4n3C)cc2C(F)(F)F)CC1` [Example I-301, 7-chloro-N-(4-((4-ethyl-1,4-diazepan-1-yl)methyl)-3-(trifluoromethyl)phenyl)-1-methyl-6-(pyrazolo[1,5-a]pyrazin-3-yloxy)-1H-imidazo[4,5-b]pyridin-2-amine], for which the Kd is < 10 nM.

Consider `CNc1ccc2c(Oc3cnc4nc(Nc5cc(C(F)(F)F)cn(C)c5=O)n(C)c4c3C#N)cnn2c1` [Example I-302, 1-methyl-2-((1-methyl-2-oxo-5-(trifluoromethyl)-1,2-dihydropyridin-3-yl)amino)-6-((6-(methylamino)pyrazolo[1,5-a]pyridin-3-yl)oxy)-1H-imidazo[4,5-b]pyridine-7-carbonitrile], for which the Kd is 10 to 50 nM.

Regarding `CNc1ccc2c(Oc3cnc4nc(Nc5cc(C(F)(F)F)cn(C)c5=O)n(C)c4c3Cl)cnn2c1` [Example I-303, 3-((7-chloro-1-methyl-6-((6-(methylamino)pyrazolo[1,5-a]pyridin-3-yl)oxy)-1H-imidazo[4,5-b]pyridin-2-yl)amino)-1-methyl-5-(trifluoromethyl)pyridin-2(1H)-one], the Kd was < 10 nM.

Turning to `CNc1cn2ncc(Oc3cnc4nc(Nc5cc(C(F)(F)F)cn(C)c5=O)n(C)c4c3Cl)c2cn1` [Example I-304, 3-((7-chloro-1-methyl-6-((6-(methylamino)pyrazolo[1,5-a]pyrazin-3-yl)oxy)-1H-imidazo[4,5-b]pyridin-2-yl)amino)-1-methyl-5-(trifluoromethyl)pyridin-2(1H)-one], the Kd is < 10 nM.

Regarding `CNc1cn2ncc(Oc3cnc4nc(Nc5cc(CN6CC[C@H](OC)C6)cc(C(F)(F)F)c5)n(C)c4c3Cl)c2cn1` [Example I-307, (S)-7-chloro-N-(3-((3-methoxypyrrolidin-1-yl)methyl)-5-(trifluoromethyl)phenyl)-1-methyl-6-((6-(methylamino)pyrazolo[1,5-a]pyrazin-3-yl)oxy)-1H-imidazo[4,5-b]pyridin-2-amine], the Kd lay in the range of 50 to 1000 nM.

As for `CNc1cn2ncc(Oc3cnc4nc(Nc5cc(CN6CC[C@@H](OC)C6)cc(C(F)(F)F)c5)n(C)c4c3Cl)c2cn1` [Example I-308, (R)-7-chloro-N-(3-((3-methoxypyrrolidin-1-yl)methyl)-5-(trifluoromethyl)phenyl)-1-methyl-6-((6-(methylamino)pyrazolo[1,5-a]pyrazin-3-yl)oxy)-1H-imidazo[4,5-b]pyridin-2-amine], the Kd is 10 to 50 nM.

Turning to `CNc1cn2ncc(Oc3cnc4nc(Nc5nn6c(c5F)COC(C)(C)C6)n(C)c4c3Cl)c2cn1` [Example I-309, N-(7-chloro-1-methyl-6-((6-(methylamino)pyrazolo[1,5-a]pyrazin-3-yl)oxy)-1H-imidazo[4,5-b]pyridin-2-yl)-3-fluoro-6,6-dimethyl-6,7-dihydro-4H-pyrazolo[5,1-c][1,4]oxazin-2-amine], the Kd was < 10 nM.

`CNc1cn2ncc(Oc3cnc4nc(Nc5cc(C(F)(F)F)n(C6CC7(COC7)C6)n5)n(C)c4c3Cl)c2cn1` [Example I-310, N-(1-(2-oxaspiro[3.3]heptan-6-yl)-5-(trifluoromethyl)-1H-pyrazol-3-yl)-7-chloro-1-methyl-6-((6-(methylamino)pyrazolo[1,5-a]pyrazin-3-yl)oxy)-1H-imidazo[4,5-b]pyridin-2-amine] showed a Kd of 50 to 1000 nM.

`CNc1cn2ncc(Oc3cnc4nc(Nc5cc6c(c(C(F)(F)F)c5)C(C)(C)N(C)C6=O)n(C)c4c3Cl)c2cn1` [Example I-311, 6-((7-chloro-1-methyl-6-((6-(methylamino)pyrazolo[1,5-a]pyrazin-3-yl)oxy)-1H-imidazo[4,5-b]pyridin-2-yl)amino)-2,3,3-trimethyl-4-(trifluoromethyl)isoindolin-1-one] yielded a Kd of 10 to 50 nM.

Turning to `CNc1cn2ncc(Oc3cnc4nc(Nc5cc(C6CC6)cn(C)c5=O)n(C)c4c3Cl)c2cn1` [Example I-312, 3-((7-chloro-1-methyl-6-((6-(methylamino)pyrazolo[1,5-a]pyrazin-3-yl)oxy)-1H-imidazo[4,5-b]pyridin-2-yl)amino)-5-cyclopropyl-1-methylpyridin-2(1H)-one], the Kd is < 10 nM.

Regarding `CNc1cn2ncc(Oc3cnc4nc(Nc5cc(C(F)(F)F)cn(C(C)C)c5=O)n(C)c4c3Cl)c2cn1` [Example I-313, 3-((7-chloro-1-methyl-6-((6-(methylamino)pyrazolo[1,5-a]pyrazin-3-yl)oxy)-1H-imidazo[4,5-b]pyridin-2-yl)amino)-1-isopropyl-5-(trifluoromethyl)pyridin-2(1H)-one], the Kd is < 10 nM.

On to `CNc1cn2ncc(Oc3cnc4nc(Nc5cc(O[C@H]6CCN(C)C6)cc(C(F)(F)F)c5)n(C)c4c3Cl)c2cn1` [Example I-314, (S)-7-chloro-1-methyl-6-((6-(methylamino)pyrazolo[1,5-a]pyrazin-3-yl)oxy)-N-(3-((1-methylpyrrolidin-3-yl)oxy)-5-(trifluoromethyl)phenyl)-1H-imidazo[4,5-b]pyridin-2-amine], for which the Kd is < 10 nM.

On to `CNc1cn2ncc(Oc3cnc4nc(Nc5cc(O[C@@H]6CCN(C)C6)cc(C(F)(F)F)c5)n(C)c4c3Cl)c2cn1` [Example I-315, (R)-7-chloro-1-methyl-6-((6-(methylamino)pyrazolo[1,5-a]pyrazin-3-yl)oxy)-N-(3-((1-methylpyrrolidin-3-yl)oxy)-5-(trifluoromethyl)phenyl)-1H-imidazo[4,5-b]pyridin-2-amine], for which the Kd is < 10 nM.

The molecule `CNc1cn2ncc(Oc3cnc4nc(Nc5cc(CN6CCCC6)cc(C(F)(F)F)c5)n(C)c4c3Cl)c2cn1` [Example I-316, 7-chloro-1-methyl-6-((6-(methylamino)pyrazolo[1,5-a]pyrazin-3-yl)oxy)-N-(3-(pyrrolidin-1-ylmethyl)-5-(trifluoromethyl)phenyl)-1H-imidazo[4,5-b]pyridin-2-amine] gave a Kd of 10 to 50 nM.

`CNc1cn2ncc(Oc3cnc4nc(Nc5cc(C6CC6)nn(C)c5=O)n(C)c4c3Cl)c2cn1` [Example I-317, 4-((7-chloro-1-methyl-6-((6-(methylamino)pyrazolo[1,5-a]pyrazin-3-yl)oxy)-1H-imidazo[4,5-b]pyridin-2-yl)amino)-6-cyclopropyl-2-methylpyridazin-3(2H)-one]: the Kd fell in the range of 10 to 50 nM.

`CNc1cn2ncc(Oc3cnc4nc(Nc5cc(C(F)(F)F)cn(C)c5=O)n(C)c4c3OC)c2cn1` [Example I-318, 3-((7-methoxy-1-methyl-6-((6-(methylamino)pyrazolo[1,5-a]pyrazin-3-yl)oxy)-1H-imidazo[4,5-b]pyridin-2-yl)amino)-1-methyl-5-(trifluoromethyl)pyridin-2(1H)-one] returned a Kd of 10 to 50 nM.

With `COCc1n[nH]c2ncc(Oc3cnc4nc(Nc5cc(C(F)(F)F)cn(C)c5=O)n(C)c4c3C#N)cc12` [Example I-319, 6-((3-(methoxymethyl)-1H-pyrazolo[3,4-b]pyridin-5-yl)oxy)-1-methyl-2-((1-methyl-2-oxo-5-(trifluoromethyl)-1,2-dihydropyridin-3-yl)amino)-1H-imidazo[4,5-b]pyridine-7-carbonitrile], the Kd is < 10 nM.

`CNc1ccc2c(Oc3cnc4nc(Nc5cc(C(F)(F)F)cn(C)c5=O)n(C)c4c3)cnn2c1` [Example I-320, 1-methyl-3-((1-methyl-6-((6-(methylamino)pyrazolo[1,5-a]pyridin-3-yl)oxy)-1H-imidazo[4,5-b]pyridin-2-yl)amino)-5-(trifluoromethyl)pyridin-2(1H)-one]: the Kd was in the range of 10 to 50 nM.

Take `CNc1cn2ncc(Oc3cnc4nc(Nc5cc(C(F)(F)F)cn(C6CC6)c5=O)n(C)c4c3Cl)c2cn1` [Example I-321, 3-((7-chloro-1-methyl-6-((6-(methylamino)pyrazolo[1,5-a]pyrazin-3-yl)oxy)-1H-imidazo[4,5-b]pyridin-2-yl)amino)-1-cyclopropyl-5-(trifluoromethyl)pyridin-2(1H)-one]: the Kd was < 10 nM.

In turn, `Cn1c(Nc2cc(C(F)(F)F)n(C3CC4(COC4)C3)n2)nc2ncc(Oc3cnc4[nH]ccc4c3)c(C#N)c21` [Example I-322, 6-((1H-pyrrolo[2,3-b]pyridin-5-yl)oxy)-2-((1-(2-oxaspiro[3.3]heptan-6-yl)-5-(trifluoromethyl)-1H-pyrazol-3-yl)amino)-1-methyl-1H-imidazo[4,5-b]pyridine-7-carbonitrile] came in with a Kd of 10 to 50 nM.

In the case of `Cn1cc(C(F)(F)F)cc(Nc2nc3ncc(Oc4cnn5ccn(C)c(=O)c45)c(Cl)c3n2C)c1=O` [Example I-323, 3-((7-chloro-1-methyl-2-((1-methyl-2-oxo-5-(trifluoromethyl)-1,2-dihydropyridin-3-yl)amino)-1H-imidazo[4,5-b]pyridin-6-yl)oxy)-5-methylpyrazolo[1,5-a]pyrazin-4(5H)-one], the Kd lay in the range of 10 to 50 nM.
